Structures can show the parent of a compound that is named as a salt.
Columns and labels:
human PI3Kα protein = biological target: T1, human PI3Kα protein (Homo sapiens, UniProt P42336); assay: PI3Kα enzyme assay (ADP-Glo); format: biochemical; settings: 4.5 nmol/L PI3Kα, PIP2 50 μmol/L, ATP 100 μmol/L; read-out: PI3Kα enzyme inhibitory activity
T1 construct: purchased Carna Biosciences, Inc; host or cells: baculovirus expression system
Method in brief: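 Biotinylated human PI3Kα (baculovirus-expressed, 4.5 nmol/L) pre-incubated 15 min with compound in Tris-HCl pH 7.5, MgCl2, BSA; reaction 60 min at 25° C with 50 μmol/L PIP2 and 100 μmol/L ATP final. ADP quantified by ADP-Glo luminescence; IC50 calculated.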

[1] = biological target: T2, GST fusion human ERK2 protein (Homo sapiens, UniProt P28482); assay: ERK2 enzyme assay (1); format: biochemical; settings: 2.5 nmol/L ERK2, ATP 43.1 μmol/L; read-out: ERK2 enzyme inhibitory activity (1)
T2 construct: purchased Carna Biosciences, Inc; host or cells: E. coli expression system
Experimental: In an ERK2 enzyme assay, GLUTATHIONE S-TRANSFERASE (GST) FUSION HUMAN ERK2 PROTEIN (manufactured by Carna Biosciences, Inc.), which was produced by using an E. coli expression system, was used.
12 μL of a reaction liquid (2.5 nmol/L ERK2, 100 mmol/L Hepes, 10 mmol/L MgCl2, 1.5 mmol/L DTT, 0.003% Brij35, pH 7.5) including ERK2 protein and a test compound having a predetermined concentration was allowed to stand at room temperature for 15 minutes. Then, 3 μL of a mixture liquid of FL-PEPTIDE8 (5-FAM-IPTSPITTTYFFFKKK-COOH) (manufactured by Caliper Life Sciences), which is substrate peptide, and ATP (manufactured by Sigma-Aldrich Co. LLC.) was added thereto such that the final concentrations thereof became 4.25 μmol/L and 43.1 μmol/L, respectively, and an enzyme reaction was performed by allowing to stand at 25° C. for 120 minutes.
After the reaction, the enzyme reaction was stopped by adding 30 μL of a reaction stopper liquid (100 mmol/L HEPES, 11.2 mmol/L EDTA, 5.6% Brij35, pH 7.5) including a 0.5% COATING REAGENT 8 (trade name, manufactured by Perkin Elmer Inc.) thereto. Then, phosphorylated peptide and non-phosphorylated peptide were separated using LABCHIP EZ READER (trade name, manufactured by Caliper Life Sciences), and the porportion of the phosphorylated peptide was quantified.
The inhibitory activities of the compounds were evaluated using IC50 (50% inhibitory concentration). The IC50 was calculated using XLFIT (trade name, manufactured by ID Business Solutions).

T2 sequence (P28482 whole entry, the tested form may be a part): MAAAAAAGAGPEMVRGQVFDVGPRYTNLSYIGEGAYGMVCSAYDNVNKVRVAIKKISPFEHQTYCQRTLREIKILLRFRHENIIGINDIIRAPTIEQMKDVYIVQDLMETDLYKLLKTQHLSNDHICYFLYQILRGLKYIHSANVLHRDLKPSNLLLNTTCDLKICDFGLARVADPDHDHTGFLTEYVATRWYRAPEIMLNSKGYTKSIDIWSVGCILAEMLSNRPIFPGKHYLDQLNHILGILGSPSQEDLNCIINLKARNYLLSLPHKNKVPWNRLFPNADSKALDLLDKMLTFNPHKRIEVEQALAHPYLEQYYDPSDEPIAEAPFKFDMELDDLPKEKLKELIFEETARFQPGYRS
T1 sequence (P42336 whole entry): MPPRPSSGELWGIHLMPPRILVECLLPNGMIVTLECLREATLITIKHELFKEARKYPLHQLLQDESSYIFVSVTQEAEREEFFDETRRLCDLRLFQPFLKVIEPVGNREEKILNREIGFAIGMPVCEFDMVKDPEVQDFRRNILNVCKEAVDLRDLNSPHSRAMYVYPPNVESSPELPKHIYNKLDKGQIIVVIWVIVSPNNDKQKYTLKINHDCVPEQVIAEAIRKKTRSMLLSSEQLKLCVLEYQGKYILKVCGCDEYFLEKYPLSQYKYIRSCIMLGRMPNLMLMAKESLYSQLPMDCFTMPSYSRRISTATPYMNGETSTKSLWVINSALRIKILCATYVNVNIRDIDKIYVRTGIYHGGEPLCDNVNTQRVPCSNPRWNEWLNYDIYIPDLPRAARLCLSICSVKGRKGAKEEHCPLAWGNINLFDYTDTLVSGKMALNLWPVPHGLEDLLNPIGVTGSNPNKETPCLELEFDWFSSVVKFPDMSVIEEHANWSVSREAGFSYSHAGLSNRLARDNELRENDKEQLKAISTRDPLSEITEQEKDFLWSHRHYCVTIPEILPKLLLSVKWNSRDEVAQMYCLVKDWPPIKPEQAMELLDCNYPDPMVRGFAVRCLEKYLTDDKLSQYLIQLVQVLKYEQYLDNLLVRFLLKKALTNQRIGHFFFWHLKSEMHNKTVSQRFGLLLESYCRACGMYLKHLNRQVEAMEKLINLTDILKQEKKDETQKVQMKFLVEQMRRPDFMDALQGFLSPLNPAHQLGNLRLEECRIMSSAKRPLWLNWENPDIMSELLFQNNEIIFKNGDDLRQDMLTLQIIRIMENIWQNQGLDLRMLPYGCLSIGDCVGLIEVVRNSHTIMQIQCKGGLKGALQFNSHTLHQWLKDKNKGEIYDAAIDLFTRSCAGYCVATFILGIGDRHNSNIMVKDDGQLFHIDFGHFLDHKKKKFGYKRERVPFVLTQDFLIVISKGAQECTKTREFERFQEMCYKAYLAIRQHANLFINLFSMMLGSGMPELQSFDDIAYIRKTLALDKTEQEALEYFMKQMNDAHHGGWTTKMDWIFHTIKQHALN
T1 sequence (P27986 whole entry partner): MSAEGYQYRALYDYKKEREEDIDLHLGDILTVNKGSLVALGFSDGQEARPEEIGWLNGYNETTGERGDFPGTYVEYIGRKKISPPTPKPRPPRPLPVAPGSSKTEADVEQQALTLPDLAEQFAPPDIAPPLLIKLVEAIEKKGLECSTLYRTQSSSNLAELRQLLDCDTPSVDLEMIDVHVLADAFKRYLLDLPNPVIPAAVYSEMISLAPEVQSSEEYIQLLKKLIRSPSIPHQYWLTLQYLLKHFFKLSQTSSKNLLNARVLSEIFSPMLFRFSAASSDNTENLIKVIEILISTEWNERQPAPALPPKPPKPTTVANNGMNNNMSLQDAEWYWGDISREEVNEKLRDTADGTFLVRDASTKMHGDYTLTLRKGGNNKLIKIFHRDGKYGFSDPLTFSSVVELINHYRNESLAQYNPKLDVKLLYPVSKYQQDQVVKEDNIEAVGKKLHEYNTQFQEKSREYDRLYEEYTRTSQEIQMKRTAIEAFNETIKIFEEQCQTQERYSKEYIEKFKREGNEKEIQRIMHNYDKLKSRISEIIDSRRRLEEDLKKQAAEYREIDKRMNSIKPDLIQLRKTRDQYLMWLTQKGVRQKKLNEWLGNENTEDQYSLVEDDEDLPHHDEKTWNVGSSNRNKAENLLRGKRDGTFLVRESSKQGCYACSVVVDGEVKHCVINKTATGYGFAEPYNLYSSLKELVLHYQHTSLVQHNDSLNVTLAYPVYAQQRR

| Structure (SMILES) | IC50 (human PI3Kα protein) | IC50 [1] |
| --- | --- | --- |
| COc1cccc(Nc2ccnc3ccc(Nc4nnc(C(C)C)s4)nc23)c1 [Example 0012] | < 1000 nM | 1000 to 10000 nM |
| COc1ccc(Nc2ccnc3ccc(Nc4nnc(C(C)C)s4)nc23)cc1 [Example 0013] | < 1000 nM | 1000 to 10000 nM |
| CC(C)c1cnnc(Nc2ccc3ncc(-c4cnn(CCCN(C)C)c4)cc3n2)c1 [Example 0020, 7-(1-(3-(Dimethylamino)propyl)-1H-pyrazol-4-yl)-N-(5-isopropylpyridazin-3-yl)-1,5-naphthyridine-2-amine] | < 1000 nM | < 1000 nM |
| COc1ccc(-c2cnc3ccc(Nc4ncc(C)s4)nc3c2)cc1OC [Example 0022, N-(7-(3,4-dimethoxyphenyl)-1,5-naphthyridin-2-yl)-5-methylthiazole-2-amine] | 1000 to 10000 nM | 10000 to 50000 nM |
| COc1ccc(-c2cnc3ccc(Nc4nccs4)nc3c2)cc1OC [Example 0023, N-(7-(3,4-dimethoxyphenyl)-1,5-naphthyridin-2-yl)thiazole-2-amine] | 1000 to 10000 nM | 1000 to 10000 nM |
| COc1ccc(-c2cnc3ccc(Nc4nc(C)cs4)nc3c2)cc1OC [Example 0024, N-(7-(3,4-dimethoxyphenyl)-1,5-naphthyridin-2-yl)-4-methylthiazole-2-amine] | 1000 to 10000 nM | 10000 to 50000 nM |
| Cn1cc(-c2cnc3ccc(Nc4nccs4)nc3c2)cn1 [Example 0029] | < 1000 nM | < 1000 nM |
| Cn1cc(-c2cnc3ccc(Nc4ncc[nH]4)nc3c2)cn1 [Example 0030, N-(1H-imidazol-2-yl)-7-(1-methyl-1H-pyrazol-4-yl)-1,5-naphthyridine-2-amine] | < 1000 nM | < 1000 nM |
| Cn1cc(-c2cnc3ccc(Nc4cc[nH]n4)nc3c2)cn1 [Example 0033, 7-(1-methyl-1H-pyrazol-4-yl)-N-(1H-pyrazol-3-yl)-1,5-naphthyridine-2-aminetrifluoroacetate] | 1000 to 10000 nM | 1000 to 10000 nM |

The next lines start with the values.

| IC50 (human PI3Kα protein) | IC50 [1] | Structure (SMILES) |
| --- | --- | --- |
| < 1000 nM | 1000 to 10000 nM | CCOC(=O)c1cnc(Nc2ccc3ncc(-c4cnn(C)c4)cc3n2)s1 [Example 0035, ethyl 2-((7-(1-methyl-1H-pyrazol-4-yl)-1,5-naphthyridin-2-yl)amino)thiazole-5-carboxylate] |
| 1000 to 10000 nM | 1000 to 10000 nM | Cn1cc(-c2cnc3ccc(Nc4ccccn4)nc3c2)cn1 [Example 0036, 7-(1-methyl-1H-pyrazol-4-yl)-N-(pyridin-2-yl)-1,5-naphthyridine-2-amine] |
| 10000 to 50000 nM | 1000 to 10000 nM | Cn1cc(-c2cnc3ccc(Nc4cccnc4)nc3c2)cn1 [Example 0038] |
| 10000 to 50000 nM | < 1000 nM | Oc1cnc2ccc(Nc3nnc(C4CCCC4)s3)nc2c1 [Example 0040, 6-((5-cyclopentyl-1,3,4-thiadiazol-2-yl)amino)-1,5-naphthyridin-3-ol hydrochloride] |
| 10000 to 50000 nM | < 1000 nM | COCCOc1cnc2ccc(Nc3nnc(C4CCCC4)s3)nc2c1 [Example 0041, 5-cyclopentyl-N-(7-(2-methoxyethoxy)-1,5-naphthyridin-2-yl)-1,3,4-thiadiazole-2-amine hydrochloride] |
| 1000 to 10000 nM | < 1000 nM | c1cnc2ccc(Nc3nnc(C4CCCC4)s3)nc2c1 [Example 0043, 5-cyclopentyl-N-(1,5-naphthyridin-2-yl)-1,3,4-thiadiazole-2-amine hydrochloride] |
| 10000 to 50000 nM | < 1000 nM | O=C1C=C(c2cnc3ccc(Nc4nnc(C5CCCC5)s4)nc3c2)CO1 [Example 0045, 4-(6-((5-cyclopentyl-1,3,4-thiadiazol-2-yl)amino)-1,5-naphthyridin-3-yl)furan-2(5H)-one hydrochloride] |
| 1000 to 10000 nM | < 1000 nM | OCCN1CCN(c2cnc3ccc(Nc4nnc(C5CCCC5)s4)nc3c2)CC1 [Example 0046, 2-(4-(6-((5-cyclopentyl-1,3,4-thiadiazol-2-yl)amino)-1,5-naphthyridin-3-yl)piperazin-1-yl)ethanol hydrochloride] |
| 1000 to 10000 nM | < 1000 nM | CC(=O)N1CCN(c2cnc3ccc(Nc4nnc(C5CCCC5)s4)nc3c2)CC1 [Example 0048] |
